Data published in PubChem BioAssay (NCI).
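Method: 48-hour compound exposure of cells in 96-well plates, five concentrations, linear interpolation of endpoints. GI50: concentration for 50% inhibition of growth. TGI is the concentration that stops growth completely.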

Tests used:
Test in all cases: NCI-60 cell line screen, 48 h
HCC-2998 colon = system: HCC-2998 colon
K-562 leukemia = system: K-562 leukemia
MOLT-4 leukemia = system: MOLT-4 leukemia
OVCAR-3 ovarian = system: OVCAR-3 ovarian
OVCAR-4 ovarian = system: OVCAR-4 ovarian
OVCAR-5 ovarian = system: OVCAR-5 ovarian
SF-295 CNS = system: SF-295 CNS
SK-OV-3 ovarian = system: SK-OV-3 ovarian
SW-620 colon = system: SW-620 colon
UACC-257 melanoma = system: UACC-257 melanoma

SMILES	TGI (HCC-2998 colon) [µM]	TGI (K-562 leukemia) [µM]	TGI (MOLT-4 leukemia) [µM]	TGI (OVCAR-3 ovarian) [µM]	TGI (OVCAR-4 ovarian) [µM]	TGI (OVCAR-5 ovarian) [µM]	TGI (SF-295 CNS) [µM]	TGI (SK-OV-3 ovarian) [µM]	TGI (SW-620 colon) [µM]	TGI (UACC-257 melanoma) [µM]	GI50 (HCC-2998 colon) [µM]	GI50 (K-562 leukemia) [µM]	GI50 (MOLT-4 leukemia) [µM]	GI50 (OVCAR-3 ovarian) [µM]	GI50 (OVCAR-4 ovarian) [µM]	GI50 (OVCAR-5 ovarian) [µM]	GI50 (SF-295 CNS) [µM]	GI50 (SK-OV-3 ovarian) [µM]	GI50 (SW-620 colon) [µM]	GI50 (UACC-257 melanoma) [µM]
COC(=O)C1(O)CC(=O)CCC1c1ccc(OC)cc1 (configuration not stated)	> 100	> 100	> 100	> 100	> 100	> 100	> 100	> 100	> 100	> 100	–	–	–	–	–	–	–	–	–	–
CN(C)C(=S)/N=c1\ssc(=S)n1Cc1ccncc1	57.3	> 100	49.3	32.9	95.2	> 100	83.8	72.2	48.8	83.5	–	–	–	–	–	–	–	–	–	–
CCC(=O)Nc1nc2c(ncn2C2OC(COC(=O)CC)C(OC(=O)CC)C2OC(=O)CC)c(=O)[nH]1 (configuration not stated)	> 100	> 100	> 100	> 100	> 100	> 100	> 100	> 100	> 100	> 100	–	–	–	–	–	–	–	–	–	–
CC(C)(C)C(=O)[CH-]C(=O)C(C)(C)C.CC(C)(C)C(=O)[CH-]C(=O)C(C)(C)C.CN(C)c1ccc([O-])cc1.CN(C)c1ccc([O-])cc1.[Ti+4]	> 100	> 100	> 100	> 100	> 100	> 100	> 100	> 100	> 100	> 100	> 100	> 100	> 100	96.2	> 100	> 100	> 100	> 100	> 100	> 100
C/C(=N/NC(=O)C[N+](C)(C)C)C(CN(C)C)C(=O)Nc1ccccc1 (configuration not stated)	> 100	> 100	> 100	> 100	> 100	> 100	> 100	> 100	> 100	> 100	–	–	–	–	–	–	–	–	–	–
N#CNC(N)=Nc1ccc(Cl)cc1	> 100	> 100	> 100	> 100	> 100	> 100	> 100	> 100	> 100	> 100	–	–	–	–	–	–	–	–	–	–
CN1/C(=C\C=C\C2=[N+](C)c3ccccc3C2(C)C)C(C)(C)c2ccccc21	1.25	1.39	1.87	0.948	5.21	15.5	1.27	0.638	3.79	0.452	0.041	< 0.0156	0.146	0.0514	0.0922	0.37	0.0336	0.152	0.136	0.0386
COc1ccc2c(c1)/C(=C/c1cc(OC)c(OC)c(OC)c1)C(=O)N2	16	> 36.3	> 100	0.0463	> 100	> 100	0.602	5.23	> 100	> 100	0.586	< 0.0327	0.216	–	–	1.9	0.104	0.26	0.175	0.615
O=S(=O)(CCCl)c1ccc(Cl)cc1	25.6	> 100	> 100	10.6	10.8	14.2	47.5	98.1	11.6	11.6	11.5	3.98	3	2.84	2.22	3.56	18.2	11.7	2.43	2.98
CSC(=NCCc1c[nH]c2ccccc12)NC#N	> 100	> 100	> 100	> 100	> 100	> 100	> 100	> 100	> 100	> 100	–	–	–	–	–	–	–	–	–	–
CC(C)(C)OC(=O)NCCCCCCCn1c2c(c3ccccc3c1=O)C(=O)c1ccccc1-2	> 100	> 100	> 100	> 100	> 100	> 100	> 100	> 100	> 100	> 100	40.6	42.7	25.6	34.3	30.5	> 100	37.4	31.6	44	41.4
O=C(N[C@@H](C[Se][Se]C[C@H](NC(=O)c1ccc(Br)cc1F)C(=O)O)C(=O)O)c1ccc(Br)cc1F	> 100	> 100	> 100	> 100	> 100	> 100	> 100	> 100	> 100	> 100	> 100	> 100	> 100	> 100	> 100	> 100	> 100	> 100	> 100	> 100
Nc1ccc(/C=C/C(=O)NCc2cc3cc(-c4ccc(C(=O)N5CCC(F)(F)CC5)cc4)cc(-c4ccc(F)cc4)c3o2)cn1	> 100	> 100	> 100	> 100	> 100	> 100	> 100	> 100	> 100	> 100	10.5	0.356	3.46	> 39.1	> 71.5	8.43	–	> 100	0.0571	> 100
CNC(=O)c1nn(C)c2c1C(C)(C)Cc1cnc(Nc3ccc(N4CCN(C)CC4)cc3)nc1-2	> 10	> 7.77	> 5.29	> 10	> 8.34	> 9.01	> 10	1.54	> 10	> 9.15	2.47	0.356	0.546	0.966	0.683	0.504	1.09	0.209	0.608	0.863
